Test results published in patent US20090196942A1, “TOPICAL COMPOSITIONS CONTAINING CITRUS JABARA EXTRACT” (priority 2008, published 2009).

System: rat basophil leukemia cells (line RBL-2H3)
Assay: Histamine release from calcium ionophore A23187-stimulated RBL-2H3 cells (Histamine ELISA)
Type: cell-based
Conditions: Calcium Ionophore 2 μM, supernatant histamine by ELISA
Method: Citrus Jabara extract was tested to determine its effectiveness in blocking histamine release. Histamine is released by skin and tissues in response to immune challenge. Ingredients that will block the release of histamine improve the soothing properties of skin care products into which they are incorporated. To perform the test, rat basophil leukemia cells (line RBL-2H3) were grown in Dulbecco's Modified Eagle Medium (DMEM) with 10% heat inactivated fetal calf serum, and seeded in 24 well plates at 2.5×10^5 cells/well. The cells were grown overnight and the culture media was removed from the wells and replaced with 1 ml of PIPES buffer (100 mM NaCl, 5 mM KCl, 0.4 mM MgCl2, 1 mM CaCl2, and 5.6 mM D-glucose), pH 7.2. This buffer is known to reduce the spontaneous release of histamine. Stock solutions were prepared: (1) Positive Control: A 10 mM stock solution of diosmetin in DMSO; (2) Active: Citrus Jabara powder—100 mg/ml in DMSO; (3) Calcium Ionophore: 2 mM in DMSO (Sigma Calcium Ionophore A23187). The Control was added to four separate wells varying the final concentration of the Control in each well to 1, 3, 10, and 30 μM. The Active was added to four other wells in varying percentage concentrations ranging from 0.01%, .05%, 0.1%, and 0.5% w/v in each plate. One well was left untreated with cells only. Another single well contained DMSO at a final concentration of less than 1% v/v. […]

## COc1ccc(-c2cc(=O)c3c(O)cc(O)cc3o2)cc1O [diosmetin]
  inhibition at 30 µM: 85%
